In PubChem BioAssay (NCI):
Where “and” joins values, the source holds several entries; their conditions need not be identical. Equal values may be shown once.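 Protocol summary: plate cells (96-well), add compound at 5 concentrations, incubate 48 h, interpolate endpoints linearly. At the GI50, growth is halved. TGI: concentration producing complete growth inhibition.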

Experiments:
Assay in all cases: growth of human tumour cells (NCI), 48 h
[1] = system: BT-549 breast
[2] = system: U251 CNS
[3] = system: HCT-15 colon
[4] = system: M14 melanoma
[5] = system: SK-MEL-5 melanoma
[6] = system: RXF 393 renal
[7] = system: SN12C renal
[8] = system: MALME-3M melanoma
[9] = system: SK-MEL-2 melanoma
[10] = system: HCT-116 colon

SMILES | GI50 [1] [µM] | TGI [1] [µM] | GI50 [2] [µM] | TGI [2] | GI50 [3] [µM] | TGI [3] | GI50 [4] [µM] | TGI [4] | GI50 [5] [µM] | TGI [5] | GI50 [6] [µM] | TGI [6] | GI50 [7] [µM] | TGI [7] | GI50 [8] [µM] | TGI [8] | GI50 [9] [µM] | TGI [9] [µM] | GI50 [10] [µM] | TGI [10]
O=[N+]([O-])c1ccc(N2CCOCC2)c2c1no[n+]2[O-] | 1.64 | 6.25 | 0.984 | 2.32 µM | 1.32 | 2.89 µM | 1.11 | 3.81 µM | 1.41 | 3.34 µM | 1.49 | 4.01 µM | 1.2 | 2.85 µM | 1.52 | 4.28 µM | 2.06 | 5.11 | 0.965 | 2.24 µM
N#CCCN1C/C(=C/c2ccc(Cl)cc2)C(=O)/C(=C/c2ccc(Cl)cc2)C1 | 1.24 | 2.65 | 0.417 | 1.48 µM | 0.412 | 1.78 µM | 1.8 | 3.99 µM | 1.59 | 2.98 µM | 1.22 | 2.61 µM | 1.44 | 3.39 µM | 2.24 | 5.22 µM | 2.19 | 4.88 | 0.25 | 0.59 µM
C(=N/N(Cc1ccccc1)Cc1ccccc1)/c1ccccc1 | > 100 | > 100 | > 100 | > 100 µM | > 100 | > 100 µM | 90.1 | > 100 µM | 55.4 | > 100 µM | 66.3 | > 100 µM | > 100 | > 100 µM | 41.1 | > 100 µM | 25 | 72.6 | 26.1 | > 100 µM
CCCCCCNC(=O)Oc1ccc(/C(=C(\C)c2ccc(Cl)cc2)c2ccc(OCCN3CCCCC3)cc2)cc1 | 3.61 | 8.12 | 3.52 | 7.92 µM | 1.07 | 4.71 µM | 0.785 | 3.65 µM | 2.46 | 6.71 µM | 3.3 | 7.55 µM | 4.22 | 8.68 µM | 3.36 | 7.7 µM | 6.22 | 12.8 | 0.962 | 4.78 µM
C=CCN1CC(=O)N2[C@@H](Cc3ccc(O)cc3F)C(=O)N(Cc3cccc(N4CC(N5CCN(CC)CC5)C4)n3)C[C@@H]2N1C(=O)NCc1ccccc1 | 0.111 | > 54.1 | 0.0319 | > 100 µM | 0.449 | > 20.9 µM | 0.0445 | 19.6 µM | 0.0703 | 0.33 µM | 0.231 | 6.85 µM | 0.111 | > 100 µM | 0.0292 | 0.211 µM | 0.0435 | 0.476 | 0.0325 | > 100 µM
COc1ccc(/C=C(\C#N)n2nnc3c(F)cccc32)cc1 | 0.433 | > 34.6 | 0.41 | 17.7 µM | 0.133 | > 100 µM | 0.245 | 1.57 µM | 0.47 | > 33.7 µM | 0.182 | 0.572 µM | 0.585 | > 100 µM | 0.517 | > 100 µM | 0.504 | > 49.9 | 0.363 | > 31.6 µM
COc1cc2nc(-c3cc(F)ccc3O)nc(N[C@@H]3CNC[C@H]3C(C)(C)O)c2cc1OC | 1.64 | 3.09 | 1.62 | 3.06 µM | 1.79 | 3.46 µM | 1.87 | 3.47 µM | 1.74 | 3.15 µM | 1.27 | 2.55 µM | 1.42 | 3.12 µM | 1.78 | 3.24 µM | 1.59 | 3.12 | 1.35 | 2.75 µM
Cn1cc(C2=C(c3cccc(OC[C@@H](O)CO)c3)C(=O)NC2=O)c2ccccc21 | 12.3 | > 25 | > 15.5 | > 25 µM | > 25 | > 25 µM | > 25 | > 25 µM | > 8.72 | > 25 µM | 2.08 | > 25 µM | > 23 | > 25 µM | > 25 | > 25 µM | > 25 | > 25 | > 15.8 | > 25 µM
Cc1cc[n+]2c(c1)-c1cc(C)cc[n+]1CC2 |  | > 100 |  | > 100 µM |  | > 100 µM |  | > 100 µM |  | > 100 µM |  | > 100 µM |  | > 100 µM |  | > 100 µM |  | > 100 |  | > 100 µM
C[C@]12CC[C@@H]3c4cc(OC(F)F)c(OS(N)(=O)=O)cc4CC[C@H]3[C@@H]1CC[C@@H]2O | 0.901 | 16.9 | 0.539 | 16.4 µM | 0.406 | 13.6 µM | 0.343 | 14.6 µM | 0.315 | 3.56 µM | 0.139 | 0.589 µM | 0.608 | 19.1 µM | 0.485 | 21.6 µM | 3.34 | 38.7 | 0.434 | 15 µM
Oc1cccc2ccc(N/N=C/c3cc(CN4CCOCC4)c(O)c4ncccc34)nc12 | 0.0363 | 2.78 | < 0.0154 | 3.74 µM | < 0.0104 | 1.78 µM | 0.0392 | 1.58 µM | 0.0124 | 0.0375 µM | 0.048 | 1.66 µM | 0.0348 | 7.82 µM | 0.032 | 1.89 µM | < 0.0181 | 0.26 | 0.0223 | 2.77 µM
Cc1cc(C)nc(SC2=C(Nc3cc(Cl)ccc3O)C(=O)N(Cc3ccccc3)C2=O)n1 | 63 | > 160 | 38.6 | > 160 µM | 23.5 | 78.4 µM | 48.4 | > 160 µM | 38.9 | > 160 µM | 4.03 | 17.2 µM |  |  | 39.4 | 99.7 µM | 49.5 | > 160 | 31.4 | > 160 µM
NS(=O)(=O)c1ccc(-c2cc3ccncc3cc2OCc2ccccc2)cc1 | 6.01 | > 25 | > 21.5 | > 25 µM | 13.2 | > 25 µM | > 25 | > 25 µM | > 25 | > 25 µM | 7.16 | > 25 µM | 24.9 | > 25 µM | 22.8 | > 25 µM | 14.6 | > 25 | > 14.8 | > 25 µM
COC1C(N)C(OC2C(Oc3cccc4c(O)c5c(=O)oc6ccc(C)c7c(=O)oc(c34)c5c67)OC(C)C(O)C2(C)O)OC(C)C1O (centres undefined) |  | 0.214 |  | 0.789 µM |  | 7.55 µM |  | 0.75 µM |  | 0.265 µM |  | 0.138 µM |  | 0.547 µM |  | 0.171 µM |  | 0.0378 |  | 0.118 µM
Cc1cc(N=Nc2ccccc2C)ccc1N |  | 23.2 |  | 35.7 µM and 30.4 µM |  | 25.2 µM and 33.4 µM | 16.1 | 24.9 µM and 38.7 µM | 14.1 | 29.2 µM and 27.4 µM | 15.1 | 22.9 µM and 33.7 µM | 2.86 | 27.4 µM and 16.3 µM | 16.2 | 38.6 µM and 39 µM |  | 33.5 | 13.2 | 29.5 µM and 27.3 µM
Oc1c(I)cc(I)c2cccnc12 | 0.833 | 33.9 | 3.74 | 25.3 µM | 4.29 | > 100 µM | 5.27 | 23.7 µM | 2.4 | 16.5 µM | 11.4 | 29.8 µM | 6.67 | 45.5 µM | 0.573 | 27.6 µM | 8.82 | 52.4 | 3.09 | 13.5 µM
OCCNC1c2cc(Cl)ccc2-c2c(Cl)cc(Cl)cc21 (centres undefined) |  | > 100 |  | > 100 µM |  | > 100 µM |  | > 100 µM |  | > 100 µM |  | > 100 µM |  | 86.3 µM |  | > 100 µM |  | 45.4 |  | > 100 µM
O=C(CCCCCCN1CC(=O)N2[C@@H](c3ccc(Cl)c(Cl)c3)c3[nH]c4ccccc4c3C[C@H]2C1=O)NO | 4.41 | 14.2 | 2.78 | 8.25 µM | 10 | > 33.3 µM | 4.22 | 14.5 µM | 4.73 | 9.29 µM | 1.73 | 6.04 µM | 4.33 | 14.5 µM | 2.7 | 14.8 µM | 4.07 | 13.2 | 1.47 | 6.92 µM
CC1OC(OC2C(O)CC(OC3C(O)CC(OC4CCC5(C)C(CCC6C5CC(O)C5(C)C(C7=CC(=O)OC7)CCC65O)C4)OC3C)OC2C)CC(O)C1O (centres undefined) | 0.0309 | 0.101 | 0.0514 | 0.165 µM | 0.113 | 0.293 µM | 0.176 | 0.349 µM | 0.0371 | 0.129 µM | 0.0293 | 0.0994 µM | 0.0391 | 0.248 µM | 0.0373 | 0.16 µM | 0.128 | 0.346 | 0.0331 | 0.115 µM
